# Reference: US5877185A, “Synergistic compositions useful as anti-tumor agents” (priority 1995, dated 1999)
# “Also recorded” adds a separate entry of the source.
# Columns and labels:
# [1] = tested on: L 1210 cells; experiment: cytotoxic effect of IABP and INO2 BA, alone and combined, on L 1210 cell growth; type: cell-based, murine; conditions: Mus musculus, L1210, 72 h, three days, read-out: decrease of L 1210 cell proliferation
# Experimental: 64 μM INO2 BA decreased L 1210 cell proliferation by approximately 80% over a three day growth period.
# [2] = tested on: SIVmac239 in CEM ×174 cells; experiment: effect of IABP on SIVmac239 replication, p27 core antigen assay; type: cell-based, SIV
# Experimental: CEM ×174 cells (3×10^5 /ml) were infected with SIVmac239 on day 0 and incubated for 3 days (37° C., 5% CO2) before treatment with IABP (0-0.5 mM). The cultures were incubated for an additional 4 days before being replenished with fresh CEM ×174 cells (3×10^5/ml) and IABP. On day 10 the levels of free virus in the supernatants of the cultures were assessed using the SIV p27 core antigen assay (Coulter Corp). The absorbance was measured at 450 nm.
# The effect of IABP on the infection cycle of SIV was determined. CEM ×174 cells (3×10^5 /ml) were infected with SIVmac239 on day 0 and incubated for 3 days ([…], 5% CO2) before treatment with IABP (0-0.5 mM). The cultures were incubated for an additional 4 days before being replenished with fresh CEM ×174 cells (3×10^5/ml) and IABP. On day 10 the levels of free virus in the supernatants of the cultures were assessed using the SIV p27 core antigen assay (Coulter Copr.) The absorbance was measured at 450 nm.
# [3] = tested on: SIVmac239 or virus isolates in CEM ×174 cells; conditions: Chuang et al., submitted (1994); cited from earlier work
# [4] = tested on: cells; conditions: Cole et al.; cited from earlier work
# [5] = tested on: HIV; conditions: Cole et al.; cited from earlier work
# [6] = tested on: CCHC zinc fingers of pADPRT or p7 NC protein of retroviruses; conditions: cited from earlier work
structure (smiles),measurement,setting,value
"Nc1ccc2oc(=O)ccc2c1I [IABP, 5-iodo-6-amino-1,2-benzopyrone]",inhibition at 160 µM,[1]; IABP 160 μM,~55%
same,inhibition at 320 µM,[1]; IABP 320 μM,~80%
same,inhibition at 480 µM,[1]; IABP 480 μM,~93%
same,p27 levels,"[2]; 0-0.5 mM, day 10",depresses p27 levels proportional to its concentration
same,titre of virions in the supernatant,[2]; 0.3 and 0.5 mM IABP,reduced the titre of virions
same,sensitivity to addition of BSO,[3],insensitive
same,toxicity of IABP,[4],very low; also recorded: no toxic effect on cells; also recorded: non-toxicity
same,infectious cycle of HIV,[5],blocked the infectious cycle of HIV
same,influence on CCHC zinc fingers,[6],no influence
